Measurements taken from article PMC5372685, “Passage through the Ocular Barriers and Beneficial Effects in Retinal Ischemia of Topical Application of PACAP1-38 in Rodents” (International Journal of Molecular Sciences, 2017).
Ends that are not written are not given here.

Key:
[1] = set-up: species or system mice; settings: mouse, in vivo
Method: Mice were anesthetized with urethane and administered PACAP1-38 as an eye drop (1 × 10^6 cpm/eye in benzalkonium-chloride). Serum, whole brain, and eyes were collected 10 or 60 min after the eye drops were administered. The whole brain and eyes were washed in ice-cold PBS. Blood was allowed to clot, centrifuged at 5400× g for 10 min, and 50 μL of the serum obtained was added to 200 μL of 1% BSA in Lactated Ringers' (LR) solution. This mixture was added to 250 μL of 30% trichloroacetic acid, vortexed, and centrifuged for 10 min at 5400× g. Brains and eyes were homogenized separately in 0.5 mL of 1% BSA-LR with a bead beater for 30 s at 4800 rpm × 2 on ice. Samples were transferred to a microfuge tube and centrifuged at 10,000× g for 20 min and a portion of the resulting supernatant added to an equal volume of 30% trichloroacetic acid, vortexed, and centrifuged at 5400× g for 10 min. Resulting supernatant (S) and precipitate (P) from the serum, whole brain, and eyes were counted separately and the percent of radioactivity which could be precipitated with acid (% […]) was calculated using: % […] = 100(P)/(S + P). To correct for any degradation that might have occurred during the processing for acid precipitation, we added 125I-PACAP1-38 to non-radioactive arterial whole blood, whole brain, and eyes, and processed as above. Biological samples were corrected for degradation during processing by dividing their values by the processing control values.

LH surge = settings: intracerebroventricular administration; cited from earlier work
From the text: (§1) Our present study, together with the previous study on PACAP1-27, highlights the potential therapeutic use of PACAP in the form of eye drops to treat retinal diseases. The novelty of our present results is that PACAP1-38, the most commonly occurring form of the peptide, exerts a retinoprotective effect similarly to PACAP1-27. Although most actions of PACAP1-27 and PACAP1-38 are similar or the same, several differences are also known. In most studies, PACAP1-27 binds to the receptors with less affinity, leading to less well-pronounced effects at the same concentration as PACAP1-38 [6, 36]. T ...

dipeptidyl-peptidase = settings: cited from earlier work
From the text: as §1

retinoblastoma cells = settings: high concentrations; cited from earlier work
From the text: as §1

[2] = system: monosodium glutamate-induced excitotoxic lesions of the retina; settings: intravitreal injection; cited from earlier work
From the text: (§2) VIP, the peptide with the closest structural similarity ...

[3] = system: ocular barriers and retinal lesion; settings: eye drops dissolved in benzalkonium-chloride; cited from earlier work
From the text: The present results are in accordance with our recent observations with PACAP1-27 eye drops.

ischemic retinal lesion = settings: cited from earlier work
From the text: as §2

[4] = system: retinal layers in BCCAO-induced retinal hypoperfusion; assay: Retina morphology and morphometry after permanent bilateral common carotid artery occlusion (BCCAO); format: in vivo, Wistar rats
Method: (§3) Wistar rats (n = 20:n = 12 for histological analysis, n = 8 for immunohistochemical analysis) weighing 250–300 g were subjected to permanent ligation of both common carotid arteries. The animals were bred and kept in the Animal Facility of the University of Pecs, Medical School. They were fed and watered ad libitum, under light/dark cycles of 12/12 h. All procedures were in accordance with institutional guidelines (ethical permission No: BA02/2000-31/2011, University of Pecs). Under isoflurane anesthesia, both common carotid arteries were exposed through a midline cervical incision and ligated with a 3-0 filament. Directly after the operation within 1 min, the right eye was treated with PACAP1-38 eye drops (1 µg/drop) (PACAP was synthesized at the Department of Medical Chemistry, University of Szeged, Szeged, Hungary). […] The left eye served as a control, treated only with the vehicle. A group of animals served as the sham-operated group that underwent anesthesia and all steps of the surgical procedure except ligation of the carotid arteries. Rats were treated twice a day with one drop, for 5 consecutive days.
Rats (n = 3 sham, n = 3 sham + PACAP1-38, n = 9 BCCAO, n = 9 BCCAO + PACAP1-38 retinas) were sacrificed with an overdose of anesthetic 2 weeks after BCCAO and eyes were processed for histological analysis. Histological analysis was performed as described previously. Briefly, removed retinas were dissected in phosphate buffered saline (PBS), fixed in 4% paraformaldehyde dissolved in 0.1 M phosphate buffer (PB), embedded in Durcupan ACM resin, and two-µm-thick sections were stained with toluidine blue (Sigma, Budapest, Hungary). Four tissue blocks obtained from at least three rats were prepared and central retinal areas within 1 mm from the optic nerve were used (n = 5 measurements from one tissue block). The following parameters were measured on digital photographs taken with a Nikon Eclipse camera using the Spot program: cross-section from the outer limiting membrane (OLM) to the inner limiting membrane (ILM), and width of all retinal layers (outer nuclear layer-ONL, outer plexiform layer-OPL, inner nuclear layer-INL, inner plexiform layer-IPL). We also counted the number of cells in the ganglion cell layer (GCL). Results are presented as mean ± SEM. Statistical comparisons were made using the two-way ANOVA followed by Fischer’s post hoc analysis.

[5] = system: Müller glial cells (GFAP); assay: GFAP immunohistochemistry of Müller glial cell activation after BCCAO; format: in vivo, Wistar rats; settings: BCCAO rats, eye drops 1 µg/drop twice a day for 5 days, 2 weeks after ischemia, n = 4; p < 0.05
Method: as §3, with “Rats were treated twice a day with one drop, for 5 consecutive days.” left out
For immunohistochemical analysis, 2 weeks after the induction of ischemia, animals (n = 4 sham, n = 4 sham + PACAP1-38 and n = 4 BCCAO; n = 4 BCCAO + PACAP1-38 retinas) were sacrificed with 120 mg/kg pentobarbital (Nembutal, Sanofi-Phylaxia, Budapest, Hungary). […] Digital photographs were taken with a Nikon Eclipse Ci fluorescence microscope. […]

[6] = mouse, in vivo

125I-PACAP1-38: PACAP1-38 labeled with 125I using the lactoperoxidase method
Percentage of acid precipitation, Eye, 10 min [1]: 52.73 ± 2.35% | Percentage of acid precipitation, Eye, 60 min [1]: 48.24 ± 3.39% | Percentage of acid precipitation, Serum, 10 min [1]: 25.57 ± 25.57% | Percentage of acid precipitation, Serum, 60 min [1]: 0 ± 0% | Percentage of acid precipitation, Whole Brain, 10 min [1]: 104.71 ± 17.72% | Percentage of acid precipitation, Whole Brain, 60 min [1]: 75.09 ± 41.13% | degradation in the serum after ocular administration [1]: almost completely degraded by 5 min

PACAP1-27: the shorter biologically active form of PACAP [reference compound]
effect on LH surge (LH surge): opposite reaction | metabolic stability in the serum against dipeptidyl-peptidase (dipeptidyl-peptidase): more stable due to the resistance against dipeptidyl-peptidase reaction | viability of retinoblastoma cells (retinoblastoma cells): negligible effects | retinoprotection in monosodium glutamate-induced excitotoxic lesions [2]: same degree of retinoprotection | passage through ocular barriers and effect on retinal lesion [3]: passes through the mouse ocular barriers from the corneal surface to the retina, and ameliorates the retinal lesion

PACAP6-27: PACAP receptor antagonist (FTDSYSRYRKQMAVKKYLAAVL; ends and bridges not checked; UniProt P18509 137-158, looked up, fragment)
retinoprotection in monosodium glutamate-induced excitotoxic lesions [2]: further increased the excitotoxic damage

PACAP6-38: PACAP receptor antagonist (FTDSYSRYRKQMAVKKYLAAVLGKRYKQRVKNK; ends and bridges not checked; UniProt P18509 137-169, looked up, fragment)
retinoprotection in monosodium glutamate-induced excitotoxic lesions [2]: further increased the excitotoxic damage

VIP: the peptide with the closest structural similarity to PACAP
concentration needed for the same degree of protection as PACAP in ischemic retinopathy (ischemic retinal lesion): ten times higher

glucagon
protective effects in ischemic retinal lesion (ischemic retinal lesion): do not exert protective effects

pituitary adenylate cyclase activating polypeptide [PACAP1-38]
OLM–ILM (outer limiting membrane–inner limiting membrane) distance, reduction compared to sham controls ([4]; BCCAO rats, eye drops 1 µg/drop in 0.005% benzalkonium-chloride, twice a day for 5 days, 2 weeks after ligation, BCCAO vehicle eye 49.7%, p < 0.001, n = 9 retinas): 40.6% | outer nuclear layer (ONL) thickness, reduction ([4]; as E1, BCCAO vehicle eye 36.5%, no statistically significant attenuation): 37.7% | inner nuclear layer (INL) thickness, reduction ([4]; as E1, BCCAO vehicle eye 38.5%, p < 0.001): 30.5% | number of cells in the ganglion cell layer (GCL), decrease ([4]; as E1, BCCAO vehicle eye 52.4%, p < 0.05): 25.9% | outer plexiform layer (OPL) thickness, reduction ([4]; as E1, BCCAO vehicle eye 53.0%, no statistically significant attenuation): 48.2% | inner plexiform layer (IPL) thickness, reduction ([4]; as E1, BCCAO vehicle eye 64.8%, p < 0.05): 38.2% | effect on retinal layers in sham animals ([4]; sham-operated rats, eye drops 1 µg/drop in benzalkonium, n = 3): did not result in changes in any of the retinal layers | GFAP upregulation in Müller glial cells [5]: attenuated the GFAP upregulation | Percentage of acid precipitation, Whole Brain, 10 min [1]: 104.71 ± 17.72% | Percentage of acid precipitation, Whole Brain, 60 min [1]: 75.09 ± 41.13% | intact peptide in the eye [1]: about 50% | clearance into the blood stream (serum) [6]: increased clearance into the blood stream after 120 min | detection of radioactivity after ocular application [6]: present in the eye, the brain, and the serum five minutes after application | level in the whole brain, time course [6]: detected after 5 min in the whole brain (Figure 4D) and levels remained stable throughout the observation time | transport across the cornea, time course [6]: increasing transport across the cornea over the time course of the study | uptake in the retina, time course [6]: increased to 30 min and plateaued | effect on LH surge (LH surge): inhibition of the LH surge | metabolic stability in the serum against dipeptidyl-peptidase (dipeptidyl-peptidase): rapidly degraded in the serum by dipeptidyl-peptidase | viability of retinoblastoma cells (retinoblastoma cells): reduced viability | retinoprotection in monosodium glutamate-induced excitotoxic lesions [2]: same degree of retinoprotection

pituitary adenylate cyclase activating polypeptide [PACAP]
serum and brain levels in comparison to ocular levels [6]: negligible in comparison to ocular levels

secretin
protective effects in ischemic retinal lesion (ischemic retinal lesion): do not exert protective effects
